The results in this text go back to PubChem BioAssay (NCI).

Among the test systems are A498 renal; KM12 colon; NCI-H23 lung; RPMI-8226 leukemia; SNB-19 CNS; UO-31 renal; NCI/ADR-RES ovarian; RXF 393 renal; SR leukemia; MCF7 breast.
Common to all, as to assay: NCI-60 cell line screen, 48 h

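Where inhibition never reached the appropriate level, the endpoint shown equals the highest concentration tested. Otherwise, values were interpolated linearly from a five-concentration, 48-hour dose response in 96-well plates. The concentration for 50% growth inhibition is given as GI50. Definition used: TGI = concentration required for complete inhibition of growth.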

On to `O=C(/C=C(\[O-])c1ccccc1)CCCCCCC(=O)/C=C(\[O-])c1ccccc1.O=C(/C=C(\[O-])c1ccccc1)CCCCCCC(=O)/C=C(\[O-])c1ccccc1.O=C(/C=C(\[O-])c1ccccc1)CCCCCCC(=O)/C=C(\[O-])c1ccccc1.[Nd+3].[Nd+3]`, for which the GI50 with A498 renal is greater than 50 µM; with KM12 colon, greater than 50 µM; in the experiment on NCI-H23 lung, greater than 50 µM; in the experiment with RPMI-8226 leukemia, 43.2 µM; in the experiment with SNB-19 CNS, greater than 50 µM; in the experiment on UO-31 renal it was greater than 50 µM. The TGI in the experiment on A498 renal, in the experiment on KM12 colon, in the experiment on NCI-H23 lung, with RPMI-8226 leukemia, in the experiment on SNB-19 CNS and with UO-31 renal was greater than 50 µM each time.
With `N#CCC1(n2cc(-c3ncnc4[nH]ccc34)cn2)CN(C2CCN(C(=O)c3ccnc(C(F)(F)F)c3F)CC2)C1`, the GI50 with A498 renal is 29.1 µM; in the experiment on KM12 colon, 36.1 µM; in the experiment with NCI-H23 lung it was greater than 100 µM; with NCI/ADR-RES ovarian it was greater than 100 µM; in the experiment on RPMI-8226 leukemia, 98.2 µM; in the experiment on RXF 393 renal, 28.2 µM. The GI50 in the experiment with SNB-19 CNS was greater than 100 µM; in the experiment with SR leukemia, 51.4 µM; with UO-31 renal, 49.2 µM. Also, the TGI in the experiment with A498 renal, with KM12 colon, in the experiment with NCI-H23 lung, with NCI/ADR-RES ovarian, with RPMI-8226 leukemia and in the experiment with RXF 393 renal was greater than 100 µM in each case. Moreover, the TGI in the experiment on SNB-19 CNS, in the experiment with SR leukemia and in the experiment on UO-31 renal was greater than 100 µM in each case.
Turning to `COc1ccc(-c2cc(-c3ccco3)c(C#N)c(=O)[nH]2)cc1`, the TGI in the experiment on A498 renal, in the experiment on KM12 colon, in the experiment on NCI-H23 lung, in the experiment on RPMI-8226 leukemia, in the experiment on RXF 393 renal and in the experiment on SNB-19 CNS was greater than 100 µM in each case. The TGI in the experiment with UO-31 renal was greater than 100 µM.
`NC(N)=N/N=C/c1c(-c2ccc(Cl)c([N+](=O)[O-])c2)nc2sc3ccccc3n12`: the GI50 in the experiment on A498 renal was 3.9 µM; with KM12 colon, 0.842 µM; with NCI/ADR-RES ovarian, 0.583 µM; in the experiment with RXF 393 renal it was 10.9 µM; with UO-31 renal, 23.6 µM. The TGI in the experiment with A498 renal was 11.2 µM; in the experiment with KM12 colon, 2.54 µM; in the experiment with NCI/ADR-RES ovarian, 1.76 µM; in the experiment on RXF 393 renal, 26.9 µM; with UO-31 renal, greater than 50 µM.
As for `Cc1nc(-n2nc(-c3ccccc3)cc2-c2ccccc2)sc1C(=O)/C=C/c1ccccc1`, the TGI in the experiment with A498 renal, in the experiment with KM12 colon, with NCI-H23 lung, in the experiment on RPMI-8226 leukemia, in the experiment with RXF 393 renal and in the experiment with SNB-19 CNS was greater than 100 µM each time. For the same compound, the TGI with UO-31 renal is greater than 100 µM.
Turning to `N#CCCN(CCC#N)c1ccc(C=Nc2ccc(F)cc2)cc1`, the TGI in the experiment on A498 renal, in the experiment with KM12 colon, in the experiment with MCF7 breast, in the experiment with NCI-H23 lung, in the experiment on RPMI-8226 leukemia and with RXF 393 renal was greater than 100 µM in each case. For the same compound, the TGI with SNB-19 CNS, with SR leukemia and in the experiment on UO-31 renal was greater than 100 µM in each case.
Consider `COc1cc2cc3c(c(O)c2c(O)c1-c1c(OC)cc2cc4c(c(O)c2c1O)C(=O)O[C@H](C)C4)C(=O)O[C@H](C)C3`, for which the GI50 with KM12 colon was 38.8 µM; in the experiment with NCI-H23 lung it was 32.1 µM; with NCI/ADR-RES ovarian it was 37.2 µM; with RXF 393 renal it was 24.4 µM; in the experiment on SNB-19 CNS it was 32.3 µM; with SR leukemia, 70.6 µM. The GI50 with UO-31 renal was greater than 100 µM. Also, the TGI was greater than 100 µM in the experiment with KM12 colon; greater than 100 µM in the experiment with NCI-H23 lung; greater than 100 µM in the experiment with NCI/ADR-RES ovarian; greater than 100 µM in the experiment on RXF 393 renal; 99.2 µM with SNB-19 CNS; greater than 100 µM with SR leukemia. This compound also showed a TGI with UO-31 renal greater than 100 µM.
For the compound `O=C1CNN=C(Cn2nc(-c3ccccc3)c3ccccc3c2=O)N1`, the TGI in the experiment with A498 renal, in the experiment with KM12 colon, in the experiment on NCI-H23 lung, with RPMI-8226 leukemia, in the experiment with SNB-19 CNS and in the experiment with SR leukemia was greater than 100 µM throughout. In the experiment with UO-31 renal, this compound displayed a TGI greater than 100 µM.
For `COc1ccc(C(=O)O/N=C2/CCCCC2CN(C)C)cc1` (centres undefined), the TGI in the experiment on A498 renal, in the experiment on KM12 colon, in the experiment with NCI-H23 lung, in the experiment on RPMI-8226 leukemia, in the experiment on RXF 393 renal and with SR leukemia was greater than 100 µM in each case. In addition, in the experiment on UO-31 renal, the TGI is greater than 100 µM.
For `[Cl-].[Gd+3].[O-]/N=C(\c1ccccc1)c1ccccn1.[O-]/N=C(\c1ccccc1)c1ccccn1.[O-]/N=C(\c1ccccc1)c1ccccn1`, the GI50 was greater than 100 µM with A498 renal; 37.3 µM with KM12 colon; greater than 100 µM in the experiment on NCI-H23 lung; greater than 100 µM in the experiment on RPMI-8226 leukemia; 93.2 µM with SNB-19 CNS; 35.3 µM with UO-31 renal. The TGI in the experiment on A498 renal, with KM12 colon, in the experiment on NCI-H23 lung, with RPMI-8226 leukemia, in the experiment on SNB-19 CNS and in the experiment on UO-31 renal was greater than 100 µM throughout.
With `CN(C)c1ccc(O[Si](Oc2ccc(N(C)C)cc2)(Oc2ccc(N(C)C)cc2)Oc2ccc(N(C)C)cc2)cc1`, the TGI in the experiment with A498 renal, with KM12 colon, with NCI-H23 lung, with RPMI-8226 leukemia, with SNB-19 CNS and in the experiment with SR leukemia was greater than 100 µM in each case. In addition, the TGI with UO-31 renal is greater than 100 µM.
`COC(=O)c1sc(=NC(=S)N2CCCCC2)sc1C(=O)OC`: the TGI with A498 renal, in the experiment with KM12 colon, with RPMI-8226 leukemia, in the experiment with RXF 393 renal, with SNB-19 CNS and in the experiment with SR leukemia was greater than 100 µM each time. For the same compound, the TGI with UO-31 renal is greater than 100 µM.
For the compound `Nc1ccc(C(=O)/C=C/c2ccccc2O)cc1`, the TGI in the experiment on A498 renal, with KM12 colon, in the experiment with NCI-H23 lung, in the experiment on RXF 393 renal, in the experiment with SNB-19 CNS and in the experiment with SR leukemia was greater than 100 µM throughout. The TGI in the experiment with UO-31 renal is greater than 100 µM.
